Source: ChEMBL document CHEMBL1201862, “PubChem BioAssay data set” (2004)
Activity calls are given as the source filed them.

How the values were obtained:
[1] = microbe, parasite or virus in culture; assay type: functional; conditions: Mycobacterium tuberculosis
[2] = loss of viability in HepG2 cells – cell-based, CellTiter-Glo, cherry-picked, cytotoxicity control for Shn3 inhibitor project, dose response (AID 624134); assay type: functional
[3] = Vero E6 cell cytotoxicity, dose response, cytotoxicity control for non-replicating M. tuberculosis project, secondary assay (AID 492998); assay type: functional, VeroE6; conditions: Vero C1008
cells = assay type: functional
[4] = reduction of Shn3 3'UTR-driven luciferase in osteoblasts – cell-based, Clone20 osteoblasts, firefly luciferase, cherry-picked, dose response (AID 624132); assay type: functional;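 also: firefly luciferase luminescence from reporter carrying the Shn3 3'UTR in osteoblasts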
[5] = THP-1 cell cytotoxicity, dose response, cytotoxicity control for non-replicating M. tuberculosis project (AID 489025); assay type: functional
[6] = molecular target: T1, Replicative DNA helicase DnaB (Mycobacterium tuberculosis, UniProt P9WMR3); experiment: DnaB intein splicing inhibitors, dose response, biochemical, cell-free fluorescence (AID 449749); assay type: functional
T1 sequence (P9WMR3 whole entry): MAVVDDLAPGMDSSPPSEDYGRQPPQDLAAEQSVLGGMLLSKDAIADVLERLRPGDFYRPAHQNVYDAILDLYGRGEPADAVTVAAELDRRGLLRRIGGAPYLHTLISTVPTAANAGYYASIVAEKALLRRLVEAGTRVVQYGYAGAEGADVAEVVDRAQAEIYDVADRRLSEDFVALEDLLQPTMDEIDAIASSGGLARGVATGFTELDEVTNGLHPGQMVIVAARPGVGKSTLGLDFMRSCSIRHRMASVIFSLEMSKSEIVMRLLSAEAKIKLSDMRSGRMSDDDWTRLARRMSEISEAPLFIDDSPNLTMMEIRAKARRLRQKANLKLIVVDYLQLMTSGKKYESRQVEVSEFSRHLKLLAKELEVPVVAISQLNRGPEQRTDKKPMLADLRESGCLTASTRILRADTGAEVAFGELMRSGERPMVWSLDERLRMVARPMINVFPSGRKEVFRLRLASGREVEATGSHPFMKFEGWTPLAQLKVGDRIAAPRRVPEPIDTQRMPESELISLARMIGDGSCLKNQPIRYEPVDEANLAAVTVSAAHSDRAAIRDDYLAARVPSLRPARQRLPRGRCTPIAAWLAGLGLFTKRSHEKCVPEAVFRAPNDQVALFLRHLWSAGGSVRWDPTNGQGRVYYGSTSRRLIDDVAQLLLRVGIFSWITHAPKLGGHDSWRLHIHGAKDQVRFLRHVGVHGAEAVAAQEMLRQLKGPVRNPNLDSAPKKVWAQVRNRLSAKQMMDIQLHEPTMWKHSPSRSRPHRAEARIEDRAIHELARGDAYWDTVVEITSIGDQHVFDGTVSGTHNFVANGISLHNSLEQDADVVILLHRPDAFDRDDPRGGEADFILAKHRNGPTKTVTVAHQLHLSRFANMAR

Protein RecA = molecular target: T2, Protein RecA (Mycobacterium tuberculosis, UniProt P9WHJ3); experiment: Fluorescence Cell-Free Homogeneous Dose Retest to Identify Inhibitors of RecA-Intein Splicing Activity. [Related pubchem assays (depositor defined):AID2097, AID2223, AID489010, AID492950]; assay type: functional
T2 sequence (P9WHJ3 whole entry): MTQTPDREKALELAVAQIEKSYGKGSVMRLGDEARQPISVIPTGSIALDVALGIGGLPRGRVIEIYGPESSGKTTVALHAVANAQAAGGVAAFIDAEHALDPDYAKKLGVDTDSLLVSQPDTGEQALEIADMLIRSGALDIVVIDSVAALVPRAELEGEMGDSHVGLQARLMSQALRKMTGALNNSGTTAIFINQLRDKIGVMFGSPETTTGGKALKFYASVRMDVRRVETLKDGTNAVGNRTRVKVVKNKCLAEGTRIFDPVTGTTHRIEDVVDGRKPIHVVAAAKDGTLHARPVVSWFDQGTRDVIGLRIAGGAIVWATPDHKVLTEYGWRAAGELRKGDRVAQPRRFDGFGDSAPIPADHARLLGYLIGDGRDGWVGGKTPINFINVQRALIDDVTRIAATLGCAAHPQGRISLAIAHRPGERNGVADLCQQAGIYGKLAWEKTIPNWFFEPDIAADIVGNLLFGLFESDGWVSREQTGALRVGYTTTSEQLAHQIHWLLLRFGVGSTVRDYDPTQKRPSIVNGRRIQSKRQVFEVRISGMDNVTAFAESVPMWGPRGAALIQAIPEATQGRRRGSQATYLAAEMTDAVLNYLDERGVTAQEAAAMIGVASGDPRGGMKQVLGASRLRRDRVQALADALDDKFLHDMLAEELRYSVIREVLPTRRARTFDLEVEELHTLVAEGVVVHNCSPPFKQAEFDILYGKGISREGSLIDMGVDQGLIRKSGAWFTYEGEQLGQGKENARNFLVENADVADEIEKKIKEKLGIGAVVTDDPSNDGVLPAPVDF

[7] = non-specific 3'UTR reporter inhibition in Clone20-Shn3RL – cell-based, Renilla luciferase, cherry-picked, counter-screen for Shn3 inhibitor project, dose response (AID 624133); assay type: functional
[8] = molecular target: Eukaryotic translation initiation factor 4E (Mus musculus, UniProt P63073); experiment: blockers of eIF4G binding by eIF4E – biochemical, TR-FRET, dose response (AID 855); assay type: functional;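 also: potency for disrupting eIF4E binding to eIF4GI seen as loss of FRET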
Eukaryotic translation initiation factor 4E, sequence (P63073 whole entry): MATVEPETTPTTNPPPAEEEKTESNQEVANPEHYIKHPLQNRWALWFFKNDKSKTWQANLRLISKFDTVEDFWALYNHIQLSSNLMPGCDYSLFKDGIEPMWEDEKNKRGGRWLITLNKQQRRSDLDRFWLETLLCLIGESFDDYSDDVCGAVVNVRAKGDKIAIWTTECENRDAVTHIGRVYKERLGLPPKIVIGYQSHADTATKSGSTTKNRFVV

SUMO-activating enzyme = SUMO-activating enzyme (Homo sapiens, UniProt Q9UBT2); experiment: blockers of UBC9-mediated SUMO conjugation – biochemical, AlphaScreen, SUMOylation inhibitor project, confirmation (AID 2018); assay type: functional
SUMO-activating enzyme, sequence (Q9UBE0 whole entry): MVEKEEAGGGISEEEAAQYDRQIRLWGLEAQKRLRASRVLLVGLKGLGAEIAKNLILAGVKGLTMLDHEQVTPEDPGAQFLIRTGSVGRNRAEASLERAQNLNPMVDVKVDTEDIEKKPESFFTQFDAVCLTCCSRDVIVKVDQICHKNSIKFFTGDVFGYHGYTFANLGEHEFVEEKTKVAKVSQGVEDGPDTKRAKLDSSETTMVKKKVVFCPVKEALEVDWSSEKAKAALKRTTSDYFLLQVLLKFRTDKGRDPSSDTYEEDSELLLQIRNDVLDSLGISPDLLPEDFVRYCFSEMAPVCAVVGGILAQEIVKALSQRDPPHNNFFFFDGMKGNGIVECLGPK
SUMO-activating enzyme, sequence (Q9UBT2 whole entry): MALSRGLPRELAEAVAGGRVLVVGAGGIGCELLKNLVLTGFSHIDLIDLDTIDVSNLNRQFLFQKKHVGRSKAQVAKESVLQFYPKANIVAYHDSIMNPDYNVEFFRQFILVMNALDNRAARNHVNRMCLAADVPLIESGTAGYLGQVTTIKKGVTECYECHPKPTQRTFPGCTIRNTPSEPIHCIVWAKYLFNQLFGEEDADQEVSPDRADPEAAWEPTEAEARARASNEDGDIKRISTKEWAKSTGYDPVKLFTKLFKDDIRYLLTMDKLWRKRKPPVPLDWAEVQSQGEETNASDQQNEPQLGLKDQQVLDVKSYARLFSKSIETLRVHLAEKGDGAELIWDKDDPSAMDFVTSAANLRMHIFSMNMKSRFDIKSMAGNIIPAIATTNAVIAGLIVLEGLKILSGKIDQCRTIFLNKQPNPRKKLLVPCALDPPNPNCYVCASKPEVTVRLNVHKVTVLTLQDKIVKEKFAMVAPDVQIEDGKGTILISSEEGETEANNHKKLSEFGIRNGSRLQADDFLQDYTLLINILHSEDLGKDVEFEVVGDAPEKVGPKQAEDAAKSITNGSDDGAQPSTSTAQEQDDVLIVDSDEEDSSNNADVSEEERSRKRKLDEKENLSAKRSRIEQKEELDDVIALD

Coagulation factor XII = molecular target: T3, Coagulation factor XII (Homo sapiens, UniProt P00748); assay type: functional;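 also: activated factor XIIa alpha cleaving a fluorogenic AMC peptide substrate; inhibitor potency from loss of enzyme activity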
T3 sequence (P00748 whole entry): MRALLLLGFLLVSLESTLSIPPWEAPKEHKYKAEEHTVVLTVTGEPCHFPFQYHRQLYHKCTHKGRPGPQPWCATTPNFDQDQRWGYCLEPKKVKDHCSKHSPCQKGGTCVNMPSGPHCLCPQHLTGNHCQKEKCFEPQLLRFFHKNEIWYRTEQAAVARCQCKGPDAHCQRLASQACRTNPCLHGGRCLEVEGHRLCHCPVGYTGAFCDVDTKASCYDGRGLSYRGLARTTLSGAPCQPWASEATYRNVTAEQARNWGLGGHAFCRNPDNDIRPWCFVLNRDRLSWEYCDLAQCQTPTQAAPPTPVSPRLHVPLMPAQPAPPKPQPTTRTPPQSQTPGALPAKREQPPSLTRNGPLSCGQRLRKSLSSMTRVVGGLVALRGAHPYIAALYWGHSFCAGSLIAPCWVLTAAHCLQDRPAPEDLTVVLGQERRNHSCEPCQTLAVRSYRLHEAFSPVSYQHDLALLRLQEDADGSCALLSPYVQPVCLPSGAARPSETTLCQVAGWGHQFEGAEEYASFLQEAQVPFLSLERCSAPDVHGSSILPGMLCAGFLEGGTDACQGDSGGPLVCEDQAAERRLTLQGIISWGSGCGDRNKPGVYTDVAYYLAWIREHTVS

HEK293 [9] = experiment: cells; conditions: Homo sapiens
HEK293 [10] = experiment: cells; conditions: Homo sapiens; remark: listed apart in the source
Paired box protein Pax-8 = Paired box protein Pax-8 (Homo sapiens, UniProt Q06710); experiment: PAX8 transcriptional activity inhibition in RMG-I – RMG-I cells, luciferase, cherry-pick, dose response (AID 687027); assay type: functional, cell-based;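 also: luciferase reporter driven by Pax8 target thyroperoxidase promoter measured by SteadyGlo luminescence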
Paired box protein Pax-8, sequence (Q06710 whole entry): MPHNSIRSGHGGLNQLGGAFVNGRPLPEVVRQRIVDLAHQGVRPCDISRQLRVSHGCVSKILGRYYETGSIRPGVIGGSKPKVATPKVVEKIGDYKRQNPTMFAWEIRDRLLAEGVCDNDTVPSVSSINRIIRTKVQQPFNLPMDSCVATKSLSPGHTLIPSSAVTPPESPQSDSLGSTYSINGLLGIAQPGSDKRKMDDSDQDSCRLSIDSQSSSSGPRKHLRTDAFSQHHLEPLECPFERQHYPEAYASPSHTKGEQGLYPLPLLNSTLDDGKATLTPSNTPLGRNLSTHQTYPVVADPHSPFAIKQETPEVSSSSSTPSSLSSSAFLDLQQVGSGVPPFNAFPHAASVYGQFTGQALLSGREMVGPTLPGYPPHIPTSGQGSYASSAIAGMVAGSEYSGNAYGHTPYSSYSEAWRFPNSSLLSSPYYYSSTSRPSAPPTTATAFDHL

[11] = molecular target: T4, Microphthalmia-associated transcription factor (Homo sapiens, UniProt O75030); experiment: reducers of TRPM1 reporter luminescence, concentration series – cell-based, SK-MEL-5, cherry-picked, set 3, MITF inhibitor project, dose response (AID 493073); assay type: functional;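 also: SK-MEL-5 melanoma cells with luciferase driven by the MITF target TRPM1 promoter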
T4 sequence (O75030 whole entry): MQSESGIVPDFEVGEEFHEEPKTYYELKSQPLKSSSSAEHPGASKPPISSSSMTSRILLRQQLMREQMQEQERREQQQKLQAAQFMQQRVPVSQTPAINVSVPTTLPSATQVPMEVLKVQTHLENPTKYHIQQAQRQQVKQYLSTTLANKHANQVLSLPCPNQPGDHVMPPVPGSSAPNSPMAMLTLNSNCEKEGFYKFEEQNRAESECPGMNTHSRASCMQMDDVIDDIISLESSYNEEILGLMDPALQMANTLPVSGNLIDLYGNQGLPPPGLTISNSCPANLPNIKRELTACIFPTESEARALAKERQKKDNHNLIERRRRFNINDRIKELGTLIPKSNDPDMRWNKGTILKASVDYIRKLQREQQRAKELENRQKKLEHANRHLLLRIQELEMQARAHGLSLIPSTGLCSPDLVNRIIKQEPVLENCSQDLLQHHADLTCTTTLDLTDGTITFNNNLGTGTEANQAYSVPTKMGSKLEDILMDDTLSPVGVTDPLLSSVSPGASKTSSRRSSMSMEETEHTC

Caspase-6 = molecular target: T5, Caspase-6 (Homo sapiens, UniProt P55212); experiment: inhibition of CASP6 peptide cleavage – biochemical, VEID-R110 fluorescence, cherry-pick, dose response (AID 720632)
T5 sequence (P55212 whole entry): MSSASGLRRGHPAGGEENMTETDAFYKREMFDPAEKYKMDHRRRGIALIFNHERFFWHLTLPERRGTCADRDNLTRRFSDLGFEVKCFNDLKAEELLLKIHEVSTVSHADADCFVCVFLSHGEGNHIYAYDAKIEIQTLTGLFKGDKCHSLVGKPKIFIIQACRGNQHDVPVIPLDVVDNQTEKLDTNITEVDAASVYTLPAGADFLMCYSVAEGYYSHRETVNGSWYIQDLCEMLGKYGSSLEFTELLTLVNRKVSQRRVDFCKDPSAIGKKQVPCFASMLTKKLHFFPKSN

**Q.** With `COC(=O)/C(=C1/Oc2cc(C)oc(=O)c2S1)C(F)(F)F` as the compound, how does the CC50 [1] read?
**A.** 9.91 µM (active)

**Q.** What about the AC50 [2] of the same compound?
**A.** 43 µM (active)

**Q.** And the CC50 [3]?
**A.** 7.26 µM (active)

**Q.** What about the IC50 (cells) of the same compound?
**A.** 1.64 µM (active)

**Q.** What about the AC50 [4] of the same compound?
**A.** 4.64 µM (active)

**Q.** And the CC50 [5]?
**A.** 10.2 µM (active)

**Q.** And the AC50 [6]?
**A.** > 380 µM (inactive)

**Q.** And the EC50 (Protein RecA)?
**A.** 3.74 µM (active)

**Q.** What about the AC50 [7] of the same compound?
**A.** 16.6 µM (active)

**Q.** For `COc1cc(OC)c(/C=N/NC(=O)c2ccc(NC(C)=O)cc2)cc1Br`, which IC50 [8] is on record?
**A.** 50 µM (inactive)

**Q.** And the IC50 (SUMO-activating enzyme)?
**A.** 22.1 µM (active)

**Q.** For `O=C1c2oc3ccccc3c(=O)c2C(c2cccc(F)c2)N1CCCO` (stereo unspecified), which IC50 (Coagulation factor XII) is on record?
**A.** > 50 µM (inactive)

**Q.** For `CCOC(=O)CSc1nc(N)c(C#N)c(-c2ccc(OCC)cc2)c1C#N`, which EC50 (HEK293 [9]) is on record?
**A.** > 59.6 µM (inactive)

**Q.** And the EC50 (HEK293 [10])?
**A.** > 59.6 µM (inactive)

**Q.** For `CSc1ccc(C(=O)C2CCCN(C(=O)c3ccc4c(c3)no[n+]4[O-])C2)cc1` (stereo unspecified), which CC50 [1] is on record?
**A.** 10.8 µM (active)

**Q.** And the CC50 [3]?
**A.** 13.7 µM (active)

**Q.** What about the IC50 (cells) of the same compound?
**A.** 1.5 µM (active)

**Q.** And the CC50 [5]?
**A.** 39.4 µM (active)

**Q.** What does the source list for `CC(=O)N1CCc2c(sc(NC(=O)c3ccc([N+](=O)[O-])o3)c2C#N)C1`?
**A.** AC50 (Paired box protein Pax-8): 2.71 µM (active); AC50 [11]: 2.22 µM (active); AC50 (Caspase-6): 26.6 µM (active)
